Measurements published in patent publication US20050063969A1, “Assay” (priority 2001, published 2005).

Assays:
Type in all cases: cell-based
K562-αvβ6 cells = assay: Adhesion of K562-αvβ6 cells to wells coated with GST-LAPβ3 (amino acids 259-269); settings: wells coated with 0.5 μg GST-LAPβ3; 2 mM MgCl2; antibodies 1 μg/well; FIG. 3
Method: (§1) K562-αvβ6 cells were allowed to attach to wells coated with 0.5 μg of GST-LAPβ3 (amino-acids 259-269) in the presence of 2 mM MgCl2. Specific blocking antibodies (1 μg/well) and compounds were added as indicated. Each data point represents the mean±SD of duplicate points, and is representative of at least three identical experiments.
(§2) K562-WT (wild-type), K562-αvβ6, K562-αvβ5 and K562-αvβ3 cells were maintained in 1:1 RPMI 1640, Hepes modification (Gibco): Dulbecco's […] (DMEM), Hepes modification (Sigma) supplemented with L-glutamine (Gibco) and 10% fetal calf serum (FCS). In addition K562-αvβ3, K562-αvβ5, and K562-αvβ6 cells were supplemented with geneticin (G418, Gibco) at 1 mg/ml. All transfected cells were generated by transfecting K562 cells with pCDNA-3 constructs containing individual integrin cDNAs, using lipofectamine plus (Gibco BRL).
(§3) All proteins were coated onto Maxisorp 96-well plates (Nunclon) overnight at 4° C. […] For quantitation cells were visualised by staining with 0.1% crystal violet (Sigma) for 10 minutes then lysed in 0.5% Triton X-100 (Sigma) and read optically at 570 nm in a Wallac Victor plate reader.
(§4) The region of LAPβ3 corresponding to amino acids 259 to 269 (^259HGRGDLGRLKK^269) was expressed as a GST fusion protein and tested for the ability to support adhesion of K562-αvβ3, K562-αvβ5, and K562-αvβ6 cells. […]

K562-αvβ3 cells = assay: Adhesion of K562-αvβ3 cells to wells coated with GST-LAPβ3 (amino acids 259-269); settings: wells coated with 0.5 μg GST-LAPβ3; 2 mM MgCl2; antibodies 1 μg/well; FIG. 2
Method: as §1, with “K562-αvβ3” for “K562-αvβ6”, “(amino acids” for “(amino-acids”
as §2, §3, §4

K562-αvβ5 cells = assay: Adhesion of K562-αvβ5 cells to wells coated with GST-LAPβ3 (amino acids 259-269); settings: wells coated with 0.5 μg GST-LAPβ3; 0.5 mM MnCl2; antibodies 1 μg/well; FIG. 4
Method: as §1, with “K562-αvβ5 cells” for “K562-αvβ6 cells”, “of […] (amino acids” for “of GST-LAPβ3 (amino-acids”, “of 0.5” for “of 2”, “mM MnCl2.” for “mM MgCl2.”
as §2, §3, §4

Molecule | Blocking of K562-αvβ6 cell adhesion to GST-LAPβ3 (amino acids 259-269) (K562-αvβ6 cells) | Blocking of K562-αvβ3 cell adhesion to GST-LAPβ3 (amino acids 259-269) (K562-αvβ3 cells) | Inhibition of K562-αvβ5 cell adhesion to GST-LAPβ3 (amino acids 259-269) (K562-αvβ5 cells)
Ac—RTDLDSLRT-NH2 (Ac-RTDLDSLRT-NH2) [GW603365A, described in WO 0037487] | blocked | – | –
CN(Cc1nc2ccccc2[nH]1)C(=O)c1ccc2c(c1)CN(C)C(=O)[C@H](CC(=O)O)N2 [SB223245] | – | blocked | total blockade
